Laboratory results reported in patent US9006450B2 (Boehringer Ingelheim International GmbH, priority 2010, dated 2015).

target: T1, human ACC2 (Homo sapiens, UniProt O00763); test: ACC2 assay, spectrophotometric 384 well assay (NADH-linked, coupled lactate dehydrogenase/pyruvate kinase); assay type: biochemical; settings: ACC2 assay, hACC2 construct lacking 128 N-terminal amino acids, 25° C., 340 nm; read-out: IC50
T1 construct: made in house; host or cells: insect cells (baculoviral expression system)
Procedure, shortened: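 Human ACC2 lacking N-terminal 128 aa, baculovirus/insect-cell expressed, anion-exchange purified; 100 mM Tris pH 7.5, 10 mM citrate, 25 mM KHCO3, 1% DMSO. Started with 200 μM NADH and acetyl-CoA plus 500 μM ATP; PK/LDH-coupled A340 decrease read 15 min at 25° C. IC50 by nonlinear fit of low-control-subtracted slopes.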

T1 sequence (O00763 129-2458 limits assumed): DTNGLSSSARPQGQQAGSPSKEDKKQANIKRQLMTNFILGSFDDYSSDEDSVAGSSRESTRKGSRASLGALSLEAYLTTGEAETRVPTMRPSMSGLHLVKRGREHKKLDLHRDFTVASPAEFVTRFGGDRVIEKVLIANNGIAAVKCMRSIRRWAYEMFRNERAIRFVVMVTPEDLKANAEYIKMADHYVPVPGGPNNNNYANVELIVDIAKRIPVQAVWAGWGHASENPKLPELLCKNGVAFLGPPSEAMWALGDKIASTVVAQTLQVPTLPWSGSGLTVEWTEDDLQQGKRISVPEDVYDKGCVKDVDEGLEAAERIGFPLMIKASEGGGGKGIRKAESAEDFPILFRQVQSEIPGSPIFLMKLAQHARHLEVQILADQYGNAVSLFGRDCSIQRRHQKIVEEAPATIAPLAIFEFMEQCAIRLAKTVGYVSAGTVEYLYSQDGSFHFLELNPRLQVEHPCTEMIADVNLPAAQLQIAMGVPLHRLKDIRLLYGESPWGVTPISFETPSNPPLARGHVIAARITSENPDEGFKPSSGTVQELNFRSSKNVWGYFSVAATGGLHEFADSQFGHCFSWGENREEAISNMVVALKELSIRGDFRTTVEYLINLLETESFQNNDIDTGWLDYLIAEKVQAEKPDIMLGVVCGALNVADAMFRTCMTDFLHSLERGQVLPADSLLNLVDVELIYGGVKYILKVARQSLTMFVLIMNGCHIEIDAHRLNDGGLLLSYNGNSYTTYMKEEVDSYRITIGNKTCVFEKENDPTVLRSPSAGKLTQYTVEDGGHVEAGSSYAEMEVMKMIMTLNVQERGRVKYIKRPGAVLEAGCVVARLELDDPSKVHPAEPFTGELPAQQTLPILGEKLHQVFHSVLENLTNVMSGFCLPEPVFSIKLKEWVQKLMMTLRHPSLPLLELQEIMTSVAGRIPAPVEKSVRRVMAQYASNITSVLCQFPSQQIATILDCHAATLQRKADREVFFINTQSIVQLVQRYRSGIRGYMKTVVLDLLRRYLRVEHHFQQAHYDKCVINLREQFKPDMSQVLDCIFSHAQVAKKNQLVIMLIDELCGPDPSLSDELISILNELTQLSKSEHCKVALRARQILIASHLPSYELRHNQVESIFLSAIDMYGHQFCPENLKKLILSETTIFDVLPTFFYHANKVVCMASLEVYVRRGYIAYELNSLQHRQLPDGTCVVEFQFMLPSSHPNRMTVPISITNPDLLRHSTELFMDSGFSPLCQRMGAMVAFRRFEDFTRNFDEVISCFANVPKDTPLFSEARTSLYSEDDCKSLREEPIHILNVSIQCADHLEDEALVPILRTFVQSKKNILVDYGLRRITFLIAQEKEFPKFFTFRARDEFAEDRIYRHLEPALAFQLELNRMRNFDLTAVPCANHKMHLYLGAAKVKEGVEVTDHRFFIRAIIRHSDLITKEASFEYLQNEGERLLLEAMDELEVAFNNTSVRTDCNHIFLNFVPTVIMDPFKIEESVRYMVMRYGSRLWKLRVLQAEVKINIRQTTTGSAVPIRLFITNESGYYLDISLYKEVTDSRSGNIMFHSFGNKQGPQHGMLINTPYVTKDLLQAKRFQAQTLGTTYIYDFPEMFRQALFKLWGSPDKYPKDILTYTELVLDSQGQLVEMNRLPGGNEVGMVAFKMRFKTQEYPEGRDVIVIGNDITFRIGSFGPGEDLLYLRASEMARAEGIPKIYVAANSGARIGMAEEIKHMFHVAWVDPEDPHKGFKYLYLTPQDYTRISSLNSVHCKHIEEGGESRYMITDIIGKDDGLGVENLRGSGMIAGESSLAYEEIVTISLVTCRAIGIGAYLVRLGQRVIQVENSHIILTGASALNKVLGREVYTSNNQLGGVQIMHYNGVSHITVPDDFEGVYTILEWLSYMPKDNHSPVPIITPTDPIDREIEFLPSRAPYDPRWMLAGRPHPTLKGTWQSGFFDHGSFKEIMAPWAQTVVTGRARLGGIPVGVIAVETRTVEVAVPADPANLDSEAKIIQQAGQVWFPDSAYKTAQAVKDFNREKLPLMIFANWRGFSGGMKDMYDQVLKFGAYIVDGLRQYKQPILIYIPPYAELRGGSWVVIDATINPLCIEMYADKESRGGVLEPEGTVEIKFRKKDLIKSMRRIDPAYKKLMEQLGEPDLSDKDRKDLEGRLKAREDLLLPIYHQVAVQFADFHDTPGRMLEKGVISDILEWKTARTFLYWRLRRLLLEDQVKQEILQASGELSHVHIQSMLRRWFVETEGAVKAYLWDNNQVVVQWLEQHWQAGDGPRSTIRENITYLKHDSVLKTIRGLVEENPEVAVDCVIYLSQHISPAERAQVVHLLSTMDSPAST

Going from `CCC(NC(C)=O)c1ccc(C2CCN(c3ccc(OCC(C)C)cc3)CC2)cc1` (stereo not drawn) [Example 15.21] to `CCOc1ccc(N2CCC(c3ccc([C@H](C)NS(C)(=O)=O)cc3)CC2)cc1` [Example 17.1, (S)—N-(1-{4-[1-(4-Ethoxy-phenyl)-piperidin-4-yl]-phenyl}-ethyl)-methanesulfonamide], the IC50 rises from 1.2 µM to 2.9 µM (2.4-fold). The first is the more potent here.

First: CCCOc1ccc(N2CCC(c3ccc([C@@H](C)NC(C)=O)cc3)CC2)c(OC)c1 [Example 15.23]
Second: CCOc1ncc(N2CCC(c3ccc([C@H](C)NC(C)=O)cc3)CC2)c(OC)n1 [Example 16.10]
The IC50 of the first is 6.9-fold higher: 6.4 µM for the first, 0.93 µM for the second.

Going from `CCOc1ncc(N2CCC(c3ccc([C@H](C)NC(C)=O)cc3)CC2)cn1` [Example 16.1, (S)—N-(1-M{4-[1-(2-Ethoxy-pyrimidin-5-yl)-piperidin-4-yl]-phenyl}-ethyl)-acetamide] to `COc1ncc(N2CCC(c3ccc([C@H](C)NC(C)=O)cc3)CC2)cn1` [Example 16.2], the IC50 rises from 1.4 µM to 4.8 µM (3.4-fold).

Compared with `CCNc1ncc(N2CCC(c3ccc([C@H](C)NC(C)=O)cc3)CC2)cn1` [Example 16.4], `CC(=O)N[C@@H](C)c1ccc(C2CCN(c3cnc(OCC4CC4)nc3)CC2)cc1` [Example 16.5] is 4-fold higher in IC50: 0.62 µM for the first, 2.5 µM for the second.

Compared with `C[C@H](NC(=O)N(C)C)c1ccc(C2CCN(c3cnc(OCC4CC4)nc3)CC2)cc1` [Example 16.6], `CCOc1ncc(N2CCC(c3ccc([C@H](C)NC(=O)N(C)C)cc3)CC2)cn1` [Example 16.7] is 3.1-fold higher in IC50: 0.45 µM for the first, 1.4 µM for the second.

Going from `CCOc1ncc(N2CCC(c3ccc([C@H](C)NC(=O)C4CC4)cc3)CC2)cn1` [Example 16.8] to `C[C@H](NC(=O)C1CC1)c1ccc(C2CCN(c3cnc(NCC4CC4)nc3)CC2)cc1` [Example 16.9], the IC50 rises from 3.9 µM to 6.7 µM (1.7-fold).

Going from `COc1nc(OCC2CC2)ncc1N1CCC(c2ccc([C@H](C)NC(C)=O)cc2)CC1` [Example 16.11] to `CC(=O)N[C@@H](C)c1ccc(C2CCN(c3ncc(C(=O)N(C)C4CC4)cn3)CC2)cc1` [Example 18.26], the IC50 rises from 1.3 µM to 2.5 µM (1.9-fold). The first is the more potent here.

Compared with `CCOc1ccc(N2CCC(c3ccc([C@H](C)NS(=O)(=O)CC)cc3)CC2)cc1` [Example 17.2], `CCOc1ccc(N2CCC(c3ccc([C@H](C)NS(=O)(=O)C(F)(F)F)cc3)CC2)cc1` [Example 17.4] is 2.7-fold higher in IC50: 4.2 µM for the first, 11.3 µM for the second.

Going from `CCOc1ccc(N2CCC(c3ccc([C@H](C)NS(=O)(=O)C4CCC4)cc3)CC2)cc1` [Example 17.3] to `COc1ccc(CNC(=O)c2cnc(N3CCC(c4ccc([C@H](C)NC(C)=O)cc4)CC3)nc2)cc1` [Example 18.19], the IC50 rises from 7.5 µM to 20.5 µM (2.7-fold).

`CC(=O)N[C@@H](C)c1ccc(C2CCN(c3ncc(C(=O)N(C)Cc4ccncc4)cn3)CC2)cc1` [Example 18.1, (S)-2-{4-[4-(1-Acetylamino-ethyl)-phenyl]-piperidin-1-yl}-pyrimidine-5-carboxylic acid methyl-pyridin-4-ylmethyl-amide] and `CC(=O)N[C@@H](C)c1ccc(C2CCN(c3ncc(C(=O)N(C)Cc4cccnc4)cn3)CC2)cc1` [Example 18.31] are within 1.5-fold of each other in IC50: 9.8 µM for the first, 9.3 µM for the second.

Compared with `CC(=O)N[C@@H](C)c1ccc(C2CCN(c3ncc(C(=O)Nc4cccc(F)c4)cn3)CC2)cc1` [Example 18.2], `CC(=O)N[C@@H](C)c1ccc(C2CCN(c3ncc(C(=O)Nc4cccc(C)c4)cn3)CC2)cc1` [Example 18.8] is 5.4-fold lower in IC50: 1.4 µM for the first, 0.26 µM for the second. The second is the more potent here.

First: CC(=O)N[C@@H](C)c1ccc(C2CCN(c3ncc(C(=O)Nc4ccc(F)cc4)cn3)CC2)cc1 [Example 18.3]
Second: CC(=O)N[C@@H](C)c1ccc(C2CCN(c3ncc(C(=O)Nc4ccc(C)cc4)cn3)CC2)cc1 [Example 18.17]
The IC50 of the first is 44-fold lower: 0.18 µM for the first, 7.9 µM for the second.

Compared with `CC(=O)N[C@@H](C)c1ccc(C2CCN(c3ncc(C(=O)N(C)c4ccc(C)cc4)cn3)CC2)cc1` [Example 18.4], `CC(=O)N[C@@H](C)c1ccc(C2CCN(c3ncc(C(=O)Nc4ccccc4C)cn3)CC2)cc1` [Example 18.7] is 2-fold higher in IC50: 1.8 µM for the first, 3.6 µM for the second. The first is the more potent here.

Compared with `CC(=O)N[C@@H](C)c1ccc(C2CCN(c3ncc(C(=O)NC4CC4)cn3)CC2)cc1` [Example 18.5], `CC(=O)N[C@@H](C)c1ccc(C2CCN(c3ncc(C(=O)N[C@H]4CCOC4)cn3)CC2)cc1` [Example 18.35] is 3.8-fold higher in IC50: 1.9 µM for the first, 7.3 µM for the second.

Going from `CC(=O)N[C@@H](C)c1ccc(C2CCN(c3ncc(C(=O)Nc4ccccc4F)cn3)CC2)cc1` [Example 18.6] to `COc1ccccc1NC(=O)c1cnc(N2CCC(c3ccc([C@H](C)NC(C)=O)cc3)CC2)nc1` [Example 18.16], the IC50 rises from 0.26 µM to 5.1 µM (20-fold). The first is the more potent here.

Going from `CC(=O)N[C@@H](C)c1ccc(C2CCN(c3ncc(C(=O)N4CCc5ccccc54)cn3)CC2)cc1` [Example 18.9] to `COc1ccccc1CNC(=O)c1cnc(N2CCC(c3ccc([C@H](C)NC(C)=O)cc3)CC2)nc1` [Example 18.14], the IC50 rises from 1.6 µM to 10.2 µM (6.4-fold). The first is the more potent here.

Compared with `CC(=O)N[C@@H](C)c1ccc(C2CCN(c3ncc(C(=O)N(C)CC4OCCO4)cn3)CC2)cc1` [Example 18.10], `COCCN(C)C(=O)c1cnc(N2CCC(c3ccc([C@H](C)NC(C)=O)cc3)CC2)nc1` [Example 18.25] is 1.6-fold lower in IC50: 11.5 µM for the first, 7.1 µM for the second.

Going from `CC(=O)N[C@@H](C)c1ccc(C2CCN(c3ncc(C(=O)N4CCCCC4)cn3)CC2)cc1` [Example 18.11] to `COC1CCN(C(=O)c2cnc(N3CCC(c4ccc([C@H](C)NC(C)=O)cc4)CC3)nc2)CC1` [Example 18.24], the IC50 rises from 0.74 µM to 5.2 µM (7-fold).

First: COc1cccc(NC(=O)c2cnc(N3CCC(c4ccc([C@H](C)NC(C)=O)cc4)CC3)nc2)c1 [Example 18.12]
Second: CC(=O)N[C@@H](C)c1ccc(C2CCN(c3ncc(C(=O)Nc4ccc5c(c4)OCO5)cn3)CC2)cc1 [Example 18.18]
The IC50 of the first is 2.6-fold lower: 0.42 µM for the first, 1.1 µM for the second. The first is the more potent here.

`CC(=O)N[C@@H](C)c1ccc(C2CCN(c3ncc(C(=O)NCc4ccccn4)cn3)CC2)cc1` [Example 18.13] and `CC(=O)N[C@@H](C)c1ccc(C2CCN(c3ncc(C(=O)Nc4ccccn4)cn3)CC2)cc1` [Example 18.15] are within 1.5-fold of each other in IC50: 6.1 µM for the first, 7.2 µM for the second.

First: CC(=O)N[C@@H](C)c1ccc(C2CCN(c3ncc(C(=O)N4CC5CCCC5C4)cn3)CC2)cc1 (stereo partly drawn) [Example 18.20]
Second: COC1CN(C(=O)c2cnc(N3CCC(c4ccc([C@H](C)NC(C)=O)cc4)CC3)nc2)C1 [Example 18.23]
The IC50 of the first is 5.8-fold lower: 0.53 µM for the first, 3.1 µM for the second.

Going from `CC(=O)N[C@@H](C)c1ccc(C2CCN(c3ncc(C(=O)NCc4cc[nH]n4)cn3)CC2)cc1` [Example 18.21] to `CC(=O)N[C@@H](C)c1ccc(C2CCN(c3ncc(C(=O)NCc4ccn(C)n4)cn3)CC2)cc1` [Example 18.22], the IC50 rises from 2.6 µM to 11.4 µM (4.4-fold).

Compared with `COC[C@H]1CCCN1C(=O)c1cnc(N2CCC(c3ccc([C@H](C)NC(C)=O)cc3)CC2)nc1` [Example 18.27], `CC(=O)N[C@@H](C)c1ccc(C2CCN(c3ncc(C(=O)N4Cc5cnn(C)c5C4)cn3)CC2)cc1` [Example 18.28] is 1.6-fold higher in IC50: 10.4 µM for the first, 16.9 µM for the second.

`CC(=O)N[C@@H](C)c1ccc(C2CCN(c3ncc(C(=O)NCc4cocn4)cn3)CC2)cc1` [Example 18.29] and `CC(=O)N[C@@H](C)c1ccc(C2CCN(c3ncc(C(=O)NCc4ccoc4)cn3)CC2)cc1` [Example 18.32] are within 1.5-fold of each other in IC50: 6.5 µM for the first, 5.3 µM for the second.

`CC(=O)N[C@@H](C)c1ccc(C2CCN(c3ncc(C(=O)NC4CC4(F)F)cn3)CC2)cc1` (stereo partly drawn) [Example 18.30] and `CC(=O)N[C@@H](C)c1ccc(C2CCN(c3ncc(C(=O)NCc4ncccn4)cn3)CC2)cc1` [Example 18.34] are within 1.5-fold of each other in IC50: 5.2 µM for the first, 3.5 µM for the second.

For `CC(=O)N[C@@H](C)c1ccc(C2CCN(c3ncc(C(=O)Nc4cccc5c4OCO5)cn3)CC2)cc1` [Example 18.33], the IC50 was 1.5 µM.
